pIC50: −log10 of the molar value.

Drawing on ChEMBL document CHEMBL1142256, “Phosphoramidate derivatives of hydroxysteroids as inhibitors of prostate-specific membrane antigen” (Bioorg Med Chem Lett, 2008), this text covers IC50 for six molecules.

The target in this assay is Glutamate carboxypeptidase 2 (Homo sapiens, UniProt Q04609). Description: Inhibition of human PSMA.
Chain of Glutamate carboxypeptidase 2 (Q04609 whole entry): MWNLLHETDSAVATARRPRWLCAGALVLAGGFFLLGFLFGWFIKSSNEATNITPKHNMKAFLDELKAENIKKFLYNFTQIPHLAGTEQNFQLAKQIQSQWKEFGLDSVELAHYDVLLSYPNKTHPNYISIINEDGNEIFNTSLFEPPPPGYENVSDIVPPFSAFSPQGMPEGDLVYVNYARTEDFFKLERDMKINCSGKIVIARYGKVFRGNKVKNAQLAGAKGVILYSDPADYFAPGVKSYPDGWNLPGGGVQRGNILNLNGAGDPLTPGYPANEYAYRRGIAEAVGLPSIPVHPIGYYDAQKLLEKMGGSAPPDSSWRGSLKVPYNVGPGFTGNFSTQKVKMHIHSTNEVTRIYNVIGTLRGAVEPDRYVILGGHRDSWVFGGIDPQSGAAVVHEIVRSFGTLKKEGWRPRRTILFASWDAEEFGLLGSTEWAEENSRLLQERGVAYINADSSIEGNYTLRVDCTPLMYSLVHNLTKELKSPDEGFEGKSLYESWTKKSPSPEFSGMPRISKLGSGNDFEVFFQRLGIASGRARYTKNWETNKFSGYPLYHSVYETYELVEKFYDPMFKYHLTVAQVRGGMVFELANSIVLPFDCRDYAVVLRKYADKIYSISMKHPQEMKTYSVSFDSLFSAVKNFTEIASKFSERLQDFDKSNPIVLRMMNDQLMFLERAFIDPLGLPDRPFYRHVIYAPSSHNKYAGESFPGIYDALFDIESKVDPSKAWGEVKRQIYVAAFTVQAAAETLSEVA

`CC(C)CCC[C@@H](C)[C@H]1CC[C@H]2[C@@H]3CCC4C[C@@H](OP(=O)(O)N[C@@H](CCC(=O)O)C(=O)O)CC[C@]4(C)[C@H]3CC[C@]12C` (stereo partly specified): the pIC50 (in general, the IC50 on a negative log10 scale, so that one unit is a factor of ten) is 6.36.
As for `C[C@]12CC[C@H](OCCCOP(=O)(O)N[C@@H](CCC(=O)O)C(=O)O)C[C@@H]1CC[C@@H]1[C@@H]2CC[C@]2(C)C(=O)CC[C@@H]12`, the pIC50 is 6.36.
Then `CC(C)CCC[C@@H](C)[C@H]1CC[C@H]2[C@@H]3CCC4C[C@@H](OCCCOP(=O)(O)N[C@@H](CCC(=O)O)C(=O)O)CC[C@]4(C)[C@H]3CC[C@]12C` (stereo partly specified), with 6.90; and `C[C@]12CC[C@@H]3c4ccc(OCCCOP(=O)(O)N[C@@H](CCC(=O)O)C(=O)O)cc4CC[C@H]3[C@@H]1CCC2=O`, with 6.85; and `C[C@]12CC[C@H](OP(=O)(O)N[C@@H](CCC(=O)O)C(=O)O)C[C@@H]1CC[C@@H]1[C@@H]2CC[C@]2(C)C(=O)CC[C@@H]12`, with 6.24.
Then `C[C@]12CC[C@@H]3c4ccc(OC(=O)c5ccccc5)cc4CC[C@H]3[C@@H]1CC[C@@H]2OCCCOP(=O)(O)N[C@@H](CCC(=O)O)C(=O)O`, with 6.24.
